Values after ≈ are worked out from the molar mass of the structure shown.
What was measured:
Pseudomonas aeruginosa = experiment: Antibacterial activity, serial tube dilution method; format: cell-based; conditions: Pseudomonas aeruginosa; Gram-negative; serial tube dilution; read-out: MIC P aeruginosa
Experimental: (§1) The target chalcones (17–31) and pyrazolines (32–46) were tested for their antimicrobial activities by serial tube dilution method against two types of bacterial and fungal strains (Table 1 and Table 2). The bacterial strains used for the testing, including Gram-positive Staphylococcus aureus and Gram-negative Pseudomonas aeruginosa, whereas the fungal strains employed were Aspergillus niger and Candida tropicalis.
(§2) The antibacterial and antifungal activity of the novel chalcones (17 to 31) and dihydropyrazoles (32 to 46) against the selected bacterial and fungal strains was assessed by following the procedure described in our previous paper.

Staphylococcus aureus = experiment: as above; format: cell-based; conditions: Staphylococcus aureus; Gram-positive; serial tube dilution; read-out: MIC S aureus
Experimental: as §1, §2

[1] = tested on: bacterial and fungal strains (S. aureus, P. aeruginosa, A. niger, C. tropicalis); experiment: Antibacterial and antifungal activity (all strains); format: cell-based; conditions: range over bacterial and fungal strains
Experimental: as §1, §2

Human Normal Cells (L02) = experiment: MTT assay toxicity on normal cells; format: cell-based
[2] = DPPH free radical scavenging assay; conditions: antioxidant activity; average of three independent experiments
Experimental: The antioxidant activity of all 30 compounds was assessed using 1,1-diphenyl-2-picrylhydrazine (DPPH) free radical scavenging assay and the results are the average of three independent experiments (Table 3). Gallic acid was employed as a positive control. […] In the disubstituted series (20–25), compound 25 with substitutions at position 3 and 5 on the phenyl ring gave the highest activity of 9 µg/mL.
The purpose of this study was to evaluate the antioxidant activity of chalcones and pyrazolines using the DPPH free radical assay. The percentage of antioxidant activity (AA%) of all the compounds was assessed by the DPPH free radical assay. The measurement of the DPPH radical scavenging activity was performed according to methodology described by Brand-Williams et al. The samples were reacted with the stable DPPH radical in an ethanol solution. A 0.1 mM solution of DPPH was prepared by dissolving DPPH in methanol. Gallic acid was taken as a reference standard and different concentrations of test samples (5–100 µg/mL) and standard (1.0, 2.5, and 5.0 µg/mL) were prepared using methanol. One milliliter of 0.1 mM DPPH solution was added to 3 mL of all concentrations of test samples and standard separately. These mixtures were kept in dark for about 30 min and the absorbance was measured at 517 nm. The capability to scavenge the DPPH radical was calculated using the formula:(1) DPPH scavanged (%)= Absorbance of control−Absorbance of sample/Absorbance of control∗100 when DPPH reacted with an antioxidant compound and was reduced, the change in color (from deep violet to light yellow) was read [Absorbance (Abs)] at 517 nm after […] of reaction using a UV-VIS spectrophotometer.

[3] = tested on: prostate cancer cell line, DU-145; experiment: MTT assay anticancer activity; format: cell-based; conditions: Homo sapiens, MTT assay, mean ± SD (n = 3)
Experimental: All the 30 compounds were evaluated for their anticancer potency against the prostate cancer cell line, DU-145, employing colorimetric tetrazolium dye (MTT) assay. […] Among the disubstituted series 20–25, substitution at position 3 and 4 (compound 24) produced the best activity but was lower than the standard. […] Similar phenomena can be seen among the dihydropyrazole series.
The in vitro anticancer activity of chalcones (17 to 31) and dihydropyrazoles (32 to 46) was evaluated by the Mosmann’s MTT assay as described previously.

Aspergillus niger = experiment: Antifungal activity, serial tube dilution method; format: cell-based
Experimental: as §1, §2

Candida tropicalis = experiment: Antifungal activity, serial tube dilution method; format: cell-based; conditions: read-out: MIC C tropicalis
Experimental: as §1, §2

[4] = tested on: Aspergillus niger and Candida tropicalis; experiment: Antifungal activity (strain not named); format: cell-based; conditions: text/figure value, strain not named
Experimental: as §1, §2

[5] = tested on: Staphylococcus aureus and Pseudomonas aeruginosa; experiment: Antibacterial activity (strain not named); format: cell-based; conditions: text/figure value, strain not named
Experimental: as §1, §2

MIC (Pseudomonas aeruginosa) | MIC (Staphylococcus aureus) | MIC [1] | DPPH assay IC50 [2] | IC50 [3] | MIC (Aspergillus niger) | MIC (Candida tropicalis) | MIC [4] | MIC [5] | antibacterial MIC [5] | SMILES | IC50 (Human Normal Cells (L02))
64 µg/mL (≈ 221 µM) | 64 µg/mL (≈ 221 µM) | 64 to 256 µg/mL (≈ 221 to 885 µM) | 6 ± 1 µg/mL | 10 ± 2 µg/mL (≈ 34.6 µM) | 128 µg/mL (≈ 442 µM) | 128 µg/mL (≈ 442 µM) |  |  |  | COc1ccc(/C=C/C(=O)c2ccno2)c(OC)c1OC [Compound 26] | > 40 µg/mL
256 µg/mL (≈ 987 µM) | 256 µg/mL (≈ 987 µM) | 64 to 256 µg/mL (≈ 247 to 987 µM) | 9 ± 1 µg/mL | 12 ± 1 µg/mL (≈ 46.3 µM) | 256 µg/mL (≈ 987 µM) | 512 µg/mL (≈ 1970 µM) |  |  |  | COc1cc(/C=C/C(=O)c2ccno2)cc(OC)c1 [Compound 25] | > 40 µg/mL
128 µg/mL (≈ 558 µM) | 128 µg/mL (≈ 558 µM) | 64 to 256 µg/mL (≈ 279 to 1120 µM) | 38 ± 2 µg/mL | 20 ± 1 µg/mL (≈ 87.2 µM) | 256 µg/mL (≈ 1120 µM) | 256 µg/mL (≈ 1120 µM) |  |  |  | COc1cccc(/C=C/C(=O)c2ccno2)c1 [Compound 18] | > 40 µg/mL
128 µg/mL (≈ 442 µM) | 64 µg/mL (≈ 221 µM) | 64 to 256 µg/mL (≈ 221 to 885 µM) | 8 ± 2 µg/mL | 8 ± 2 µg/mL (≈ 27.7 µM) | 128 µg/mL (≈ 442 µM) | 256 µg/mL (≈ 885 µM) |  |  |  | COc1cc(/C=C/C(=O)c2ccno2)cc(OC)c1OC [Compound 29] | > 40 µg/mL
1 µg/mL (≈ 3.46 µM) | 1 µg/mL (≈ 3.46 µM) |  | 5 ± 1 µg/mL | 30 ± 2 µg/mL (≈ 104 µM) | 2 µg/mL (≈ 6.91 µM) | 2 µg/mL (≈ 6.91 µM) | 2 µg/mL (≈ 6.91 µM) | 1 µg/mL (≈ 3.46 µM) | 1 µg/mL | COc1cc(OC)c(/C=C/C(=O)c2ccno2)c(OC)c1 [Compound 28] | > 40 µg/mL

— article PMC7179112, “Antimicrobial, Antioxidant, and Anticancer Activities of Some Novel Isoxazole Ring Containing Chalcone and Dihydropyrazole Derivatives” (Molecules, 2020)
